Test [1] deals with T1, human androgen receptor (Homo sapiens, UniProt P10275).
T1 construct: expressed in transfected cells; host or cells: HEK293
T1 sequence (P10275 1-920): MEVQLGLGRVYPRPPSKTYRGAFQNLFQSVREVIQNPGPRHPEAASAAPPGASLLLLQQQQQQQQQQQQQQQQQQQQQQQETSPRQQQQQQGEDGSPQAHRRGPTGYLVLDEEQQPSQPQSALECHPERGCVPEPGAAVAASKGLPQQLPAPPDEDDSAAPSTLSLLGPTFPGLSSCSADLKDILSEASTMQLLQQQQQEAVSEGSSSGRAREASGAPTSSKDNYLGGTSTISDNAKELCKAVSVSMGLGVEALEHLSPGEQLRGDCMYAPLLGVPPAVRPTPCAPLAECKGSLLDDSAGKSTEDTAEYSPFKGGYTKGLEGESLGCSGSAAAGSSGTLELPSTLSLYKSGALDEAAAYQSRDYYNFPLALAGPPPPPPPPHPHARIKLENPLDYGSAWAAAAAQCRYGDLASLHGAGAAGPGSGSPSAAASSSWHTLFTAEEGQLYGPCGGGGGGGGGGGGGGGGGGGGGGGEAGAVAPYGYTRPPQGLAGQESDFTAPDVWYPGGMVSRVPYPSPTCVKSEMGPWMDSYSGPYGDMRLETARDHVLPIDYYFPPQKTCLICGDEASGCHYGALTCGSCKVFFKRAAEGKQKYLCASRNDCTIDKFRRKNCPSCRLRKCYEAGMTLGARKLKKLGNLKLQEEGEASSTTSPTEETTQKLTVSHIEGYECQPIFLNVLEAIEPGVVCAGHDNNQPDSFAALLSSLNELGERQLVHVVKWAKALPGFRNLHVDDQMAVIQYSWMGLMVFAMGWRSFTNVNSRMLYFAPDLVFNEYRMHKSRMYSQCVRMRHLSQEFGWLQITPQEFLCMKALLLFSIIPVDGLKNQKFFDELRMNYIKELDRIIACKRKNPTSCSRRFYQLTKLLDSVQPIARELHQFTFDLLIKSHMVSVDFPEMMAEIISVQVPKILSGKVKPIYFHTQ
Briefly: Reporter assay of an androgen receptor responsive sequence (luciferase, transiently transfected HEK293 cells). It counts as cell-based. Particulars: 24 hours incubation, relative to activity of 100 nM DHT, read-out: AR transcriptive activity (pEC50) (converted). A digest of the protocol: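 HEK293 cells transiently transfected for 3 h with ARE-firefly luciferase, full-length human AR and TK-Renilla plasmids, then exposed to compound for 24 h at 37 °C in 5% charcoal-treated FBS/DMEM. Dual-Glo luminescence read; pEC50 from 4-parameter fit relative to 100 nM DHT.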
In general terms: Reporter assays use an easily measured gene product as a stand-in for the process of interest.

Test [2] concerns the target T2, androgen receptor (AR-LBD) (Rattus norvegicus, UniProt P15207).
T2 construct: 5 μL of 2×AR-LBD/Fluoromone AL Red Complex contained in the kit; purchased Invitrogen
T2 sequence (P15207 651-882 limits assumed): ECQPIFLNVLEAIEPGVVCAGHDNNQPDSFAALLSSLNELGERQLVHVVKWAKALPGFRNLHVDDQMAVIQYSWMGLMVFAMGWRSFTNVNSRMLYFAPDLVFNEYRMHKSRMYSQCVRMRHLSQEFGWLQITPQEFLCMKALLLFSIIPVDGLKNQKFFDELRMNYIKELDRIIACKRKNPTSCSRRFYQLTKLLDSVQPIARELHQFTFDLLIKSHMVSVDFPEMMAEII
Briefly: Evaluation of androgen receptor affinity (PolarScreen Androgen Receptor Competitor Assay Kit, Red; fluorescence polarization). Particulars: 22° C. for 5 hours, relative to binding rate of 1 μM DHT, read-out: AR affinity (pEC50) (converted). The procedure, abridged:
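pEC50 values reflect tracer displacement from AR-LBD (Fluoromone AL Red complex) measured by fluorescence polarization after 5 h at 22° C, normalized to 1 μM DHT and fitted with a 4-parameter model.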
In general terms: Polarisation of emitted light reports the rotation of a fluorescent probe.

As for `COCCCS(=O)(=O)NC(=O)c1nc(N(Cc2ccc3ncsc3c2)c2ccc(C#N)cc2)sc1C` [Example 195, 2-[N-(1,3-benzothiazol-6-ylmethyl)-4-cyano-anilino]-N-(3-methoxypropylsulfonyl)-5-methyl-thiazole-4-carboxamide], the EC50 in test [1] is 126 nM; in test [2], 158 nM.

As to `Cc1sc(N(Cc2nc(C3CC3)no2)c2ccc(C#N)cc2)nc1C(=O)NS(C)(=O)=O` [Example 196, 2-[4-cyano-N-[(3-cyclopropyl-1,2,4-oxadiazol-5-yl)methyl]anilino]-5-methyl-N-methylsulfonyl-thiazole-4-carboxamide], the values for the EC50 in test [1] and in test [2] were 1580 nM and 631 nM, respectively.

Consider `COCCCS(=O)(=O)NC(=O)c1nc(N(Cc2nc(C3CC3)no2)c2ccc(C#N)cc2)sc1C` [Example 197, 2-[4-cyano-N-[(3-cyclopropyl-1,2,4-oxadiazol-5-yl)methyl]anilino]-N-(3-methoxypropylsulfonyl)-5-methyl-thiazole-4-carboxamide], for which the EC50 in test [1] was 3980 nM; in test [2], 1260 nM.

`Cc1sc(N(Cc2ccc(OC(F)(F)F)cc2)c2ccc(C#N)cc2)nc1C(=O)NS(=O)(=O)CS(C)(=O)=O` [Example 198, 2-[4-cyano-N-[[4-(trifluoromethoxy)phenyl]methyl]anilino]-5-methyl-N-(methylsulfonylmethylsulfonyl)thiazole-4-carboxamide]: the EC50 in test [1] was greater than 10000 nM; in test [2], 39.8 nM.

With `Cc1sc(N(Cc2ccc(OC(F)(F)F)cc2)c2ccc(C#N)cc2)nc1C(=O)NS(=O)(=O)CCCC#N` [Example 199, N-(3-cyanopropylsulfonyl)-2-[4-cyano-N-[[4-(trifluoromethoxy)phenyl]methyl]anilino]-5-methyl-thiazole-4-carboxamide], the results for the EC50 in test [1] and in test [2] were 1000 nM and 39.8 nM, respectively.

With `Cc1sc(N(Cc2ccc(OC(F)(F)F)cc2)c2ccc(C#N)cc2)nc1C(=O)NS(=O)(=O)CCCO` [Example 200, 2-[4-cyano-N-[[4-(trifluoromethoxy)phenyl]methyl]anilino]-N-(3-hydroxypropylsulfonyl)-5-methyl-thiazole-4-carboxamide], the EC50 in test [1] is 316 nM; in test [2] it was 25.1 nM.

`Cc1sc(N(Cc2ccc(OC(F)(F)F)cc2)c2ccc(C#N)cc2)nc1C(=O)NS(=O)(=O)CCCCO` [Example 201, 2-[4-cyano-N-[[4-(trifluoromethoxy)phenyl]methyl]anilino]-N-(4-hydroxybutylsulfonyl)-5-methyl-thiazole-4-carboxamide]: the EC50 in test [1] and in test [2] was 39.8 nM throughout.

As to `Cc1sc(N(Cc2ccc(OC(F)(F)F)cc2)c2ccc(C#N)cc2)nc1C(=O)NS(=O)(=O)CC1CCOC1` (centres unmarked) [Example 202, 2-[4-cyano-N-[[4-(trifluoromethoxy)phenyl]methyl]anilino]-5-methyl-N-(tetrahydrofuran-3-ylmethylsulfonyl)thiazole-4-carboxamide], the results for the EC50 in test [1] and in test [2] were 126 nM and 31.6 nM, respectively.

`Cc1sc(N(Cc2cccc(N)c2)c2ccc(C#N)cc2)nc1C(=O)NS(C)(=O)=O` [Example 203, 2-[N-[(3-aminophenyl)methyl]-4-cyano-anilino]-5-methyl-N-methylsulfonyl-thiazole-4-carboxamide]: the EC50 in test [1] is 631 nM; in test [2], 316 nM.

Regarding `Cc1sc(N(Cc2cccc(N(C)C)c2)c2ccc(C#N)cc2)nc1C(=O)NS(C)(=O)=O` [Example 215, 2-[4-cyano-N-[[3-(dimethylamino)phenyl]methyl]anilino]-5-methyl-N-methylsulfonyl-thiazole-4-carboxamide], the EC50 was 200 nM in test [1] and 50.1 nM in test [2].

On to `Cc1sc(N(Cc2cccc(N3CCCC3)c2)c2ccc(C#N)cc2)nc1C(=O)NS(C)(=O)=O` [Example 216, 2-[4-cyano-N-[(3-pyrrolidin-1-ylphenyl)methyl]anilino]-5-methyl-N-methylsulfonyl-thiazole-4-carboxamide], for which the EC50 was 1260 nM in test [1] and 63.1 nM in test [2].

For the compound `Cc1sc(N(Cc2cccc(N3CCCCC3)c2)c2ccc(C#N)cc2)nc1C(=O)NS(C)(=O)=O` [Example 217, 2-[4-cyano-N-[[3-(1-piperidyl)phenyl]methyl]anilino]-5-methyl-N-methylsulfonyl-thiazole-4-carboxamide], the EC50 in test [1] is 3160 nM; in test [2], 50.1 nM.

Consider `Cc1sc(N(Cc2cccc(-n3ccnc3)c2)c2ccc(C#N)cc2)nc1C(=O)NS(C)(=O)=O` [Example 218, 2-[4-cyano-N-[(3-imidazol-1-ylphenyl)methyl]anilino]-5-methyl-N-methylsulfonyl-thiazole-4-carboxamide], for which the EC50 was greater than 10000 nM in test [1] and 251 nM in test [2].

For the compound `Cc1sc(N(Cc2cccc(-n3cccn3)c2)c2ccc(C#N)cc2)nc1C(=O)NS(C)(=O)=O` [Example 219, 2-[4-cyano-N-[(3-pyrazol-1-ylphenyl)methyl]anilino]-5-methyl-N-methylsulfonyl-thiazole-4-carboxamide], the EC50 was 1580 nM in test [1] and 63.1 nM in test [2].

`Cc1oc(N(CCc2ccc(Cl)cc2)Cc2ccccc2)nc1C(=O)NS(C)(=O)=O` [Example 220, 2-[benzyl-[2-(4-chlorophenyl)ethyl]amino]-5-methyl-N-methylsulfonyl-oxazole-4-carboxamide]: the EC50 in test [1] is 316 nM; in test [2], 39.8 nM.

On to `CS(=O)(=O)NC(=O)c1nc(N(Cc2ccc3occc3c2)c2ccc(C#N)cc2)sc1Br` [Example 221, 2-[N-(benzofuran-5-ylmethyl)-4-cyano-anilino]-5-bromo-N-methylsulfonyl-thiazole-4-carboxamide], for which the results for the EC50 in test [1] and in test [2] were 50.1 nM and 39.8 nM, respectively.

As for `Cc1sc(N(Cc2ccccc2)c2ccc(C#N)c(F)c2)nc1C(=O)NS(C)(=O)=O` [Example 222, 2-(N-benzyl-4-cyano-3-fluoro-anilino)-5-methyl-N-methylsulfonyl-thiazole-4-carboxamide], the EC50 was 251 nM in test [1] and 200 nM in test [2].

Regarding `Cc1sc(N(Cc2ccccc2)c2ccc(C(F)(F)F)nc2)nc1C(=O)NS(C)(=O)=O` [Example 223, 2-[benzyl-[6-(trifluoromethyl)-3-pyridyl]amino]-5-methyl-N-methylsulfonyl-thiazole-4-carboxamide], the EC50 in test [1] is 631 nM; in test [2] it was 398 nM.

On to `CS(=O)(=O)NC(=O)c1nc(N(Cc2ccccc2)c2ccc(C#N)cc2)sc1C(F)(F)F` [Example 230, 2-(N-benzyl-4-cyano-anilino)-N-methylsulfonyl-5-(trifluoromethyl)thiazole-4-carboxamide], for which the EC50 in test [1] is 1260 nM; in test [2] it was 126 nM.

For `Cc1sc(N(Cc2ccccc2)c2ccc3ccccc3c2)nc1C(=O)NS(C)(=O)=O` [Example 232, 2-[benzyl(2-naphthyl)amino]-5-methyl-N-methylsulfonyl-thiazole-4-carboxamide], the EC50 was greater than 10000 nM in test [1] and 200 nM in test [2].

Take `CS(=O)(=O)NC(=O)c1nc(N(Cc2ccccc2Cl)c2ccc(C#N)cc2)sc1Br` [Example 240, 5-bromo-2-[N-[(2-chlorophenyl)methyl]-4-cyano-anilino]-N-methylsulfonyl-thiazole-4-carboxamide]: the EC50 in test [1] is 200 nM; in test [2] it was 79.4 nM.

For `Cc1sc(N(Cc2ccccc2)c2ccc(S(F)(F)(F)(F)F)cc2)nc1C(=O)NS(C)(=O)=O` [Example 241, 2-[N-benzyl-4-(pentafluorosulfanyl)anilino]-5-methyl-N-methylsulfonyl-thiazole-4-carboxamide], the figures for the EC50 in test [1] and in test [2] were 1000 nM and 316 nM, respectively.

Values taken from patent US10689354B2, “Aminoazole derivative” (Teijin Pharma Limited, priority 2015, dated 2020).
